Test results taken from patent US6303618A, “Cyclin dependent kinase inhibiting purine derivatives” (priority 1997, dated 2001).
Read-outs that look alike come from different tables or passages of the source.

Key:
[1] = biological target: CDK1 (p34 cdc2)/cyclin B; test: CDK inhibition assay (histone H1 kinase), CDK1; format: biochemical, starfish (Marthasterias glacialis); details: for IC50: CDK1; for IC50 / effect of side chain at N9 or N7, or halo at C2, on activity: Table 1; for % inhibition CDK1: at 100 μM; for effect of side chain at N9 or N7, or halo at C2, on activity: in words
Protocol: (§1) By way of example, however, a typical protocol is summarised below.
Histone H1 (type III-S (Sigma) 4° C.) 5 mg/ml in buffer C.
[^32 P]ATP […]: Make up using (multiples of) the following proportions:
DMSO cannot exceed 1% in the assay mixture. Inhibitors are added at 1/10 final assay volume and 10×final strength. DMSO stocks must therefore be diluted to 10×final desired concentration in ≤10% DMSO, ≥90% buffer C.
Start reaction in each tube at 30 second intervals by adding
5 ml [^32 P]ATP vortexing and placing in rack in waterbath at 30° C.
Terminate reaction after 10 min at 30 second intervals in tubes in same order by removing
25 ml reaction mix and spotting onto appropriately labelled filter, allowing to dry for 20-30 seconds and transferring to stirring 1% phosphoric acid.
Blank incubation is performed as above but without histone (add […] buffer C instead) Washing blank is […] ATP added directly to filter.

[2] = biological target: CDK2 (Homo sapiens, UniProt P24941); test: CDK inhibition assay, CDK2; format: biochemical
From the text: (§2) Apart from reference compounds, the compounds listed are accompanied by an NU reference or identification code number.
as §1

[3] = biological target: CDK4 (Homo sapiens, UniProt P11802); test: CDK inhibition assay, CDK4; format: biochemical; details: CDK4; Table 1; read-out: IC50 CDK4
From the text: as §2, §1

[4] = read-out: % inhibition CDK2, at 100 μM
[5] = at 100 μM, read-out: % inhibition CDK2

Chain of CDK4 (P11802 whole entry, species assumed): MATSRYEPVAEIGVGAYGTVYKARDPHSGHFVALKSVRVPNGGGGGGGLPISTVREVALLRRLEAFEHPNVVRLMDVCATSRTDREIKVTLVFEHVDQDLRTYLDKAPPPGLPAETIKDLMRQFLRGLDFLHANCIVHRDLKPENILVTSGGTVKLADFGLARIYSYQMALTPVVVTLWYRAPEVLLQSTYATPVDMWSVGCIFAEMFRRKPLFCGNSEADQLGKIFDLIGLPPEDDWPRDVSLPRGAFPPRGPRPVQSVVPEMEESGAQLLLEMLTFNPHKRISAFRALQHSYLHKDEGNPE
Chain of CDK4 (P24385 whole entry partner, species assumed): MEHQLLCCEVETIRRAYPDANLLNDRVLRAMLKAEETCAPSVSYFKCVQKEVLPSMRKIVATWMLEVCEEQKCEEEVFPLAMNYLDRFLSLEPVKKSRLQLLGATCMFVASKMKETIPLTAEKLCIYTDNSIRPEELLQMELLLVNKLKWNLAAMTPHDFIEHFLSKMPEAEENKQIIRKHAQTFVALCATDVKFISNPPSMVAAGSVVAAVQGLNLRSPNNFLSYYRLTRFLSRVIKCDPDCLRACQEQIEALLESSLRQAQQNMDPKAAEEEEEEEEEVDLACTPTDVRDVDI

IC50 [1]	Structure (SMILES)	other results
> 100 µM	COCC(COc1nc(N)nc2nc[nH]c12)OC (stereo not drawn) [NU2044, 2-amino-6-(2,3-dimethoy)propoxypurine]	–
100 µM	CC(=O)COc1nc(N)nc2[nH]cnc12 [NU2035, O^6-(2-Oxopropyl)guanine]	–
100 µM	CCOc1nc(N)nc2nc[nH]c12 [NU2046, 2-amino-6-ethoxypurine]	–
38 µM	CC/C=C/CCOc1nc(N)nc2[nH]cnc12 [NU2067, O^6-(trans-3'-Hexenyl)guanine]	–
31 µM	CCCCCCCOc1nc(N)nc2nc[nH]c12 [NU2064, 2-amino-6-heptyloxypurine]	–
51 µM	c1ccc(COc2ncnc3nc[nH]c23)cc1 [NU2002, 6-Benzyloxypurine]	–
12 µM	C=CCCCCOc1nc(N)nc2[nH]cnc12 [NU2061, O^6-(5'-Hexenyl)guanine]	–
105 µM	CC(C)C1(COc2nc(N)nc3[nH]cnc23)OCCO1 [NU2057, O^6-(3-Methyl-2-oxobutyl)guanine ethylene acetal]	–
–	CC1(C)OC[C@H](COc2nc(N)nc3[nH]cnc23)O1 [NU6025, 2-amino-6-[(S)-2',2'-dimethyl-1',3'-dioxolane-5'-methyl]oxypurine]	inhibition at 100 µM [2, 4]: 28 ± 4%; % inhibition CDK1 [1]: 34 ± 2%
–	CC1(C)OC[C@@H](COc2nc(N)nc3[nH]cnc23)O1 [NU6024, 2-amino-6-[(R)-2',2'-dimethyl-1',3'-dioxolane-5'-methyl]oxypurine]	inhibition at 100 µM [2, 5]: 38 ± 3%; % inhibition CDK1 [1]: 50 ± 1%
–	CC1(C)OCC(COc2nc(N)nc3[nH]cnc23)O1 (stereo not drawn) [NU6021, O^6-(2,2-Dimethyl-1,3-dioxolane-4-methoxy)guanine]	inhibition at 100 µM [2, 4]: 35 ± 6%; % inhibition CDK1 [1]: 36 ± 9%
400 µM	C=CCOc1nc(Cl)nc2nc[nH]c12 [NU2051, 6-allyloxy-2-chloropurine]	effect of side chain at N9 or N7, or halo at C2, on activity [1]: activity drastically diminishes
13 µM	C=C(COc1nc(N)nc2[nH]cnc12)C(C)C [NU2055, O^6-(2-Isopropylallyl)guanine]	–
50 µM	CCCOc1nc(N)nc2nc[nH]c12 [NU2045, 2-amino-6-propoxypurine]	–
75 µM	Nc1nc(OCc2ccco2)c2nc[nH]c2n1 [2-amino-6-(2-furanyl)-methyloxypurine]	–
130 µM	c1ccc(CCOc2ncnc3nc[nH]c23)cc1 [NU2023, 6-(2-Phenylethyloxy)purine]	–
–	Nc1nc(N)c(N=O)c(OCc2ccccc2)n1 [NU6039, 2,6-diamino-4-(benzylmethoxy) 5-nitrosopyrimidine]	inhibition at 100 µM [2, 4]: 51 ± 2%; % inhibition CDK1 [1]: 54 ± 9%
22 µM	C=CCOc1nc(N(C)C)nc2nc[nH]c12 [NU2048, 2-(N,N-dimethyl)amino-6-allyloxypurine]	–
> 100 µM	Nc1nc(OCC(O)CO)c2nc[nH]c2n1 (stereo not drawn) [NU2040, 2-amino-6-(2,3-dihydroxy) propoxypurine]	–
–	Nc1cc(OCc2ccccc2)nc(N)n1 [NU6038]	inhibition at 100 µM [2, 5]: 0%; % inhibition CDK1 [1]: 3 ± 3%
> 100 µM	c1nc(OCC2CCCCO2)c2[nH]cnc2n1 (stereo not drawn) [NU2014, 6-(2-tetrahydropyranyl-methyloxy)purine]	–
110 µM	C=CCOc1ncnc2nc[nH]c12 [NU2013, 6-Allyloxypurine]	–
30 µM	Nc1nc(OCC2CCCC2)c2nc[nH]c2n1 [NU2068, O^6 -(Cyclopentyl)methylguanine]	IC50 [3]: 34 µM
18 µM	CC(C)CCOc1nc(N)nc2nc[nH]c12 [NU2053, O^6-(3'-Methyl)butylguanine]	IC50 [3]: 70 µM
60 µM	C#CCOc1nc(N)nc2[nH]cnc12 [NU2031, O^6 -Propargylguanine]	–
> 100 µM	CCOC(C)(COc1nc(N)nc2[nH]cnc12)OCC [NU2032, 2-amino-6-(2,2-diethoxy) propoxypurine]	–
> 1000 µM	C=CCOc1nc(N)nc2c1ncn2CC=C [NU2036, N^9,O^6 -Diallylguanine]	effect of side chain at N9 or N7, or halo at C2, on activity [1]: activity drastically diminishes

Structure (SMILES)	IC50 [1]	other results
c1nc(OCC2CCCCC2)c2[nH]cnc2n1 [NU2017, 6-cyclohexylmethoxypurine]	16 µM	IC50 ([2]; CDK2, Table 1, read-out: IC50 CDK2): 15.5 µM; inhibition at 100 µM [2, 4]: 61 ± 2%
